# Molecular target: α-enolase (Homo sapiens, UniProt P06733)
# Experiment: microscale thermophoresis with labeled recombinant protein
# Assay type: binding
# α-enolase, sequence (P06733 2-434): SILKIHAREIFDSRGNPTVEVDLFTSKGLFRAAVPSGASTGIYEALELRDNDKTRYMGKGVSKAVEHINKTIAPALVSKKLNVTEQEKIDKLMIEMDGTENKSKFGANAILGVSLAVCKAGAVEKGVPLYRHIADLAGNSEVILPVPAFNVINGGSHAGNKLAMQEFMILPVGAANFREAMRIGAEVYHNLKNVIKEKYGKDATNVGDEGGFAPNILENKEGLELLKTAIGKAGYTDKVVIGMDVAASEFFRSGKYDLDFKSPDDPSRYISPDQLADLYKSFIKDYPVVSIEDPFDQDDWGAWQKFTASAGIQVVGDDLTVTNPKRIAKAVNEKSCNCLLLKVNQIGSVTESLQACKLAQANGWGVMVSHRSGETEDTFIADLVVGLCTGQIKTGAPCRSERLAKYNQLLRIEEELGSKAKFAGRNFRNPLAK
structure (smiles),measurement,value
CCOC(=O)Oc1c(OC)cc(C(=O)O[C@@H]2C[C@@H]3CN4CCc5c([nH]c6cc(OC)ccc56)[C@H]4C[C@@H]3[C@H](C(=O)OC)[C@H]2OC)cc1OC [syrosingopine],Kd,1250 nM
